Among the data in patent publication US20030055065A1, “Tricyclic amide and urea compounds useful for inhibition of G-protein function and for treatment of proliferative diseases” (priority 1993, published 2003) are IC50 and FPT inhibition values, retold here.

Each structure is given as a SMILES string. Several values for one entry are separate records, joined by “and”; a condition that tells them apart may be missing. Identical values can stand only once.

The first assay deals with T1, farnesyl protein transferase (FPT), partially purified from rat brain (Rattus norvegicus, UniProt Q02293+Q04631).
T1 construct: were partially purified from rat brain by ammonium sulfate fractionation followed by Q-Sepharose
T1 sequence (Q02293 whole entry, one chain of several): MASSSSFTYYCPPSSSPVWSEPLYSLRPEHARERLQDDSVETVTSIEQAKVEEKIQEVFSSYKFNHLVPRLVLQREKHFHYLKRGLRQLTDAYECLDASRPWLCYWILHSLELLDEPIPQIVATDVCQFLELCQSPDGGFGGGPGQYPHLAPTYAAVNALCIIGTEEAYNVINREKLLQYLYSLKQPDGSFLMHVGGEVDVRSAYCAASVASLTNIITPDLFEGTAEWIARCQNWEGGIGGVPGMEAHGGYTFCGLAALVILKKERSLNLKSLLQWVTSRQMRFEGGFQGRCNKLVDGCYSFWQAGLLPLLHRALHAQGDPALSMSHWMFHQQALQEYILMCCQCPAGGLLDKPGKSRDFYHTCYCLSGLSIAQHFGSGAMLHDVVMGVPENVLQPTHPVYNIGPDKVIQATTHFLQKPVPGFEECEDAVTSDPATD
Briefly: Inhibition of farnesyl protein transferase (transfer of [3H]farnesyl to Ras-CVLS). The format is biochemical. The note with it: Ras-CVLS farnesylation, partially purified rat brain FPT; read-out: FPT IC50. How it is done:
1. In vitro enzyme assays: Inhibition of farnesyl protein transferase and geranylgeranyl protein transferase.
Human farnesyl protein transferase was also expressed in E. coli, using cDNA clones encoding both the α and β subunits. […] Human farnesyl protein transferase was partially-purified from the soluble protein fraction of E. coli as described above. […] Two forms of val^12-Ha-Ras protein were prepared as substrates for these enzymes, differing in their carboxy terminal sequence. One form terminated in cysteine-valine-leucine-serine (Ras-CVLS) the other in cystein-valine-leucine-leucine (Ras-CVLL). Ras-CVLS is a substrate for the farnesyl protein transferase while Ras-CVLL is a substrate for geranylgeranyl protein transferase I. The cDNAs encoding these proteins were constructed so that the proteins contain an amino-terminal extension of 6 histidine residues. Both proteins were expressed in Escherichia coli and purified using metal chelate affinity chromatography. The radiolabelled isoprenyl pyrophosphate substrates, [^3H]farnesyl pyrophosphate and [3H]geranylgeranyl pyrophosphate, were purchased from DuPont/New England Nuclear.
The reaction was allowed to proceed for 30 minutes at room temperature and then stopped with 0.5 ml of 4% sodium dodecyl sulfate (SDS) followed by 0.5 ml of cold 30% trichloracetic acid (TCA). Samples were allowed to sit on ice for 45 minutes and precipitated Ras protein was then collected on GF/C filter paper mats using a Brandel cell harvester. […] Percent inhibition was calculated relative to the DMSO vehicle control.
Usually IC50 stands for the concentration at which inhibition is half-maximal. With `O=C(Nc1cccnc1)N1CCN([C@@H]2c3ccc(Cl)cc3CCc3cccnc32)CC1` [224 (6.10)], the IC50 came out at 3.2 µM.
In the case of `O=C(Cc1ccncc1)N1CCC(=C2c3ccncc3CCc3cc(Cl)ccc32)CC1` [Example 5.39], the IC50 came to 2.3 µM.
Still for that read-out and setting: then `C#CC(=O)N1CCC(=C2c3ccc(Cl)cc3CCc3cccnc32)CC1` [Example 9], with 4 µM; and `COC(=O)c1ccc(C(=O)N2CCC(=C3c4ccc(Cl)cc4CCc4cccnc43)CC2)cc1` [Example 13], with 4.5 µM; and `O=C(c1ccnnc1)N1CCC(=C2c3ccc(Cl)cc3CCc3cccnc32)CC1` [Example 14], with 4.6 µM.
Still for that read-out and setting: then `O=C(c1cc[nH]c1)N1CCC(=C2c3ccc(Cl)cc3CCc3cccnc32)CC1` [Example 16], with 4.8 µM; and `CN(C)c1ccc(C(=O)N2CCC(=C3c4ccc(Cl)cc4CCc4cccnc43)CC2)cc1` [Example 17], with 4.8 µM.
Consider `O=C(c1cn[nH]c1)N1CCC(=C2c3ccc(Cl)cc3CCc3cccnc32)CC1` [Example 18], for which the IC50 is 4.9 µM.
Still for that read-out and setting: then `O=C(C1CCCO1)N1CCC(=C2c3ccc(Cl)cc3CCc3cccnc32)CC1` (centres unmarked) [Example 19A], with 5.1 µM; and `Cc1ccc2c(O)c(C(=O)N3CCC(=C4c5ccc(Cl)cc5CCc5cccnc54)CC3)cnc2n1` [Example 20], with 5.2 µM.
Same read-out and setting: then `Nc1ccc(C(=O)N2CCC(=C3c4ccc(Cl)cc4CCc4cccnc43)CC2)cc1` [Example 21], with 5.9 µM.
Consider `COc1cc(C(=O)N2CCC(=C3c4ccc(Cl)cc4CCc4cccnc43)CC2)cc(OC)c1O` [Example 24], for which the IC50 was 6.2 µM.
Same read-out and setting: then `O=C(c1cc[nH]c(=O)c1)N1CCC(=C2c3ccc(Cl)cc3CCc3cccnc32)CC1` [Example 25], with 6.25 µM; and `O=C(c1cccnc1)N1CCC(=C2c3ccc(Cl)cc3CCc3cccnc32)CC1` [Example 26], with 6.3 µM; and `O=C(c1cnccn1)N1CCC(=C2c3ccc(Cl)cc3CCc3cccnc32)CC1` [Example 27], with 7.3 µM.
Consider `O=C(c1ccnc(Cl)c1)N1CCC(=C2c3ccc(Cl)cc3CCc3cccnc32)CC1` [Example 28], for which the IC50 came to 7.3 µM.
As to `O=C(c1ccccn1)N1CCC(=C2c3ccc(Cl)cc3CCc3cccnc32)CC1` [Example 29], the IC50 was 8 µM.
`O=C(c1c[nH]c2ccccc12)N1CCC(=C2c3ccc(Cl)cc3CCc3cccnc32)CC1` [Example 30]: the IC50 amounted to 5.7 µM.
In the case of `O=C(c1cc([N+](=O)[O-])c(O)c([N+](=O)[O-])c1)N1CCC(=C2c3ccc(Cl)cc3CCc3cccnc32)CC1` [Example 31], the IC50 was 8.3 µM.
For `O=C(c1cncc2ccccc12)N1CCC(=C2c3ccc(Cl)cc3CCc3cccnc32)CC1` [Example 32], the concentration for half-maximal inhibition (IC50) turned out to be 8.7 µM.
Turning to `O=C(c1cnc(O)nc1O)N1CCC(=C2c3ccc(Cl)cc3CCc3cccnc32)CC1` [Example 33], the concentration for half-maximal inhibition (IC50) turned out to be 8.7 µM.
Still for that read-out and setting: with `O=C(c1cc[n+]([O-])c2ccccc12)N1CCC(=C2c3ccc(Cl)cc3CCc3cccnc32)CC1` [Example 34] the figure was 9.8 µM.
Same read-out and setting: with `Cn1cc(C(=O)N2CCC(=C3c4ccc(Cl)cc4CCc4cccnc43)CC2)ccc1=O` [Example 36] the figure was 11.2 µM; with `Cc1cc(C(=O)N2CCC(=C3c4ccc(Cl)cc4CCc4cccnc43)CC2)cc(Cl)[n+]1[O-]` [Example 37], 11.4 µM; with `O=C(c1ccnc2ccccc12)N1CCC(=C2c3ccc(Cl)cc3CCc3cccnc32)CC1` [Example 38], 12.1 µM.
The same measure, in the same setting: then `O=C1CCC(C(=O)N2CCC(=C3c4ccc(Cl)cc4CCc4cccnc43)CC2)O1` (centres unmarked) [Example 39], with 13.4 µM; and `O=C(c1ccco1)N1CCC(=C2c3ccc(Cl)cc3CCc3cccnc32)CC1` [Example 52], with 4.9 µM.
For the compound `O=C(c1ccccc1)N1CCC(=C2c3ccc(Cl)cc3CCc3cccnc32)CC1` [Example 54], the IC50 amounted to 5.3 µM.
The same measure, in the same setting: with `O=C(c1ccoc1)N1CCC(=C2c3ccc(Cl)cc3CCc3cccnc32)CC1` [Example 55] the figure was 5.9 µM; with `CCOC(=O)C(=O)N1CCC(=C2c3ccc(Cl)cc3CCc3cccnc32)CC1` [Example 56], 7.9 µM.
On the same count and under the same terms, then `CC(C)(C)CC(=O)N1CCC(=C2c3ccc(Cl)cc3CCc3cccnc32)CC1` [Example 57], with 9.8 µM; and `COCC(=O)N1CCC(=C2c3ccc(Cl)cc3CCc3cccnc32)CC1` [Example 58], with 14.4 µM.
Turning to `CC(=O)N1CCC(=C2c3ccc(Cl)cc3CCc3cccnc32)CC1` [Example 59], the IC50 came out at 26.9 µM.
On the same count and under the same terms, with `CC(=O)N1CCC(=C2c3ccc(Cl)cc3CCc3cc(Cl)cnc32)CC1` [Example 62] the figure was 7.8 µM.
`CC(=O)N1CCC(=C2c3ccc(Cl)cc3CCc3cc(C)cnc32)CC1` [Example 64]: the IC50 is 10.6 µM.
Still for that read-out and setting: then `CC(=O)N1CCC(=C2c3cc4ccccc4cc3CCc3cccnc32)CC1` [Example 71A], with 17.6 µM; and `CC(=O)N1CCC(=C2c3ccc(Cl)cc3CCc3cc(Br)c[n+]([O-])c32)CC1` [Example 74B], with 4 µM.
Same read-out and setting: with `CC(=O)N1CCC(=C2c3ccc(Cl)cc3CCc3c(Cl)cc[n+]([O-])c32)CC1` [Example 74C] the figure was 11.6 µM; with `CNS(=O)(=O)c1ccc(C(=O)N2CCC(=C3c4ccc(Cl)cc4CCc4cccnc43)CC2)cc1` [Example 92], 3.9 µM.
Still for that read-out and setting: then `O=C(/C=C/c1ccncc1)N1CCC(=C2c3ccc(Cl)cc3CCc3cccnc32)CC1` [Example 99], with 4.4 µM; and `O=C(C1CCNCC1)N1CCC(=C2c3ccc(Cl)cc3CCc3cccnc32)CC1` [Example 100], with 4.5 µM.
As to `O=C(N[C@@H]1C[C@H]1c1ccccc1)N1CCC(=C2c3ccc(Cl)cc3CCc3cccnc32)CC1` [Example 101], the IC50 came out at 4.6 µM.
The same measure, in the same setting: with `O=C(Cc1cccs1)N1CCC(=C2c3ccc(Cl)cc3CCc3cccnc32)CC1` [Example 102] the figure was 4.6 µM; with `O=C(C1CCSCC1)N1CCC(=C2c3ccc(Cl)cc3CCc3cccnc32)CC1` [Example 103], 4.6 µM.
On the same count and under the same terms, with `O=C(C1CCC(=NO)CC1)N1CCC(=C2c3ccc(Cl)cc3CCc3cccnc32)CC1` (centres unmarked) [Example 104] the figure was 4.7 µM; with `NC1CCC(C(=O)N2CCC(=C3c4ccc(Cl)cc4CCc4cccnc43)CC2)CC1` (centres unmarked) [Example 105], 5 µM; with `O=C(O)c1ccc(C(=O)N2CCC(=C3c4ccc(Cl)cc4CCc4cccnc43)CC2)cc1` [Example 106], 5.3 µM.
Consider `CSc1ccc(C(=O)N2CCC(=C3c4ccc(Cl)cc4CCc4cccnc43)CC2)cc1` [Example 108], for which the IC50 is 6.9 µM.
For the compound `CNc1ccc(C(=O)N2CCC(=C3c4ccc(Cl)cc4CCc4cccnc43)CC2)cn1` [Example 109], the IC50 amounted to 7.2 µM.
Consider `CN(C)c1cc(C(=O)N2CCC(=C3c4ccc(Cl)cc4CCc4cccnc43)CC2)ccn1` [Example 110], for which the IC50 was 8.3 µM.
Same read-out and setting: then `O=C(c1ccc(NS(=O)(=O)C(F)(F)F)cc1)N1CCC(=C2c3ccc(Cl)cc3CCc3cccnc32)CC1` [Example 111], with 8.5 µM.
For `CC(C)(C)OC(=O)NCC(=O)N1CCC(=C2c3ccc(Cl)cc3CCc3cccnc32)CC1` [Example 112], the IC50 was 8.8 µM.
On the same count and under the same terms, then `CC(=O)N(C)CCC(=O)N1CCC(=C2c3ccc(Cl)cc3CCc3cccnc32)CC1` [Example 113], with 10.3 µM; and `O=C(c1cccnc1O)N1CCC(=C2c3ccc(Cl)cc3CCc3cccnc32)CC1` [Example 114], with 11.1 µM; and `C=CC(=O)N1CCC(=C2c3ccc(Cl)cc3CCc3cccnc32)CC1` [Example 115], with 14.2 µM.
With `CC(O)C(=O)N1CCC(=C2c3ccc(Cl)cc3CCc3cccnc32)CC1` (centres unmarked) [Example 116], the IC50 is 15.7 µM.
Turning to `NCC(=O)N1CCC(=C2c3ccc(Cl)cc3CCc3cccnc32)CC1` [Example 118], the concentration for half-maximal inhibition (IC50) is 22.3 µM.

The same assay, now with this note: at 11 μM.
Compound `COc1cc(C(=O)N2CCC(=C3c4ccc(Cl)cc4CCc4cccnc43)CC2)cc(OC)c1OC` [Example 119] showed an FPT inhibition of 41% at 11 μM.

Staying with this assay, now noted: at 13 μM.
`O=C(c1cc2ccccc2[nH]1)N1CCC(=C2c3ccc(Cl)cc3CCc3cccnc32)CC1` [Example 40]: the FPT inhibition is reported as 44% at 13 μM.

The assay is the same for the next values; noted with them: at 14.2 μM.
`COc1cc[n+]([O-])c2c1CCc1cc(Cl)ccc1C2=C1CCN(C(C)=O)CC1` [Example 74A]: the FPT inhibition is 25% at 14.2 μM.

Staying with this assay, now noted: at 15.5 μM.
For the compound `CC(=O)N1CCC(=C2c3cc(Cl)c(Cl)cc3CCc3cccnc32)CC1` [Example 71C], the FPT inhibition was found to be 38% at 15.5 μM.

Still in this assay, the particulars now being: at 15.6 μM.
In the case of `CC(=O)N1CCC(=C2c3ccc(Cl)cc3CCc3ccc[n+]([O-])c32)CC1` [Example 73], the FPT inhibition came out at 27% at 15.6 μM.

The assay is the same for the next values; noted with them: at 16.4 μM.
As to `CC(=O)N1CCC(=C2c3ccc(Cl)cc3CCc3ccc(C)nc32)CC1` [Example 63], the FPT inhibition is recorded as 1% at 16.4 μM.

The assay is the same for the next values; noted with them: at 50 μM.
`CC(=O)N1CCC(=C2c3ccc(Cl)cc3CCc3cc(C(C)(C)C)cnc32)CC1` [Example 66] gave an FPT inhibition of 22% at 50 μM.

The assay is the same for the next values; noted with them: enzyme inhibition; read-out: FPT IC50.
Take `CN1CCC(CC(=O)N2CCN(C3c4ccc(Cl)cc4CCc4cc(Br)cnc43)CC2)CC1` (centres unmarked) [425-O (5.126)]: the IC50 was 0.17 µM and 0.14 µM and 0.122 µM and 0.118 µM and 0.178 µM.
